# Measurements reported in US20110257732A1, “STENTS HAVING CONTROLLED ELUTION” (Micell Technologies, Inc., priority 2010, published 2011).
# What was measured:
# [1] = Whole blood rapamycin concentration after coated stent implantation, LC-MS/MS (Example 32); conditions: every time point 5 minutes to day 180, every subject; one coated stent (135 micrograms sirolimus) per porcine subject
# Experimental: Blood serum levels of porcine subjects having coated stents implanted were tested at multiple time points. The coated stents implanted were prepared as follows: coated stents for the study comprise a coating that was deposited on the stent by deposition of rapamycin in dry powder form by RESS methods and equipment described herein and deposition of polymer particles by RESS methods and equipment described herein. A PDPDP (Polymer, sinter, Drug, Polymer, sinter, Drug, Polymer, sinter) coating sequence was used wherein the polymer was 50:50 PLGA, and the drug was rapamycin. The sinter step was performed at 100° C./150 psi/10 min after each “P” (or polymer) layer. […] The coating was about 5-15 micrometers thick on each stent, and comprised a thicker coating on the abluminal surface (coating bias). […]
# Multiple batches of coated stents were created, implanted in the porcine subjects, one coated stent per subject, and each subject's blood serum levels were tested at multiple time points. […] The balloon was then inflated at a steady rate to a pressure sufficient to target a visually assessed balloon-artery ratio of 1.1:1-1.2:1. Confirmation of this balloon-artery ratio was made when the angiographic images were quantitatively assessed. […]
# The whole blood sample was tested for rapamycin concentration using LC-MS/MS. Samples were quantified for rapamycin using ascomycin as the internal standard. […]
# [2] = Stented artery sirolimus concentration (Example 34); format: in vivo, porcine; conditions: for Pharmaceutical agent released from the coated stent recovered in the analyzed arterial tissue: based on 135 micrograms on the original stent at time 0
# Experimental: (§1) Pharmacokinetic studies were performed on coated stents prepared and implanted as noted in Example 32. […] The coating encapsuled each of the stents.
# (§2) Complete balloon deflation was verified with fluoroscopy.
# (§3) Subjects were euthanized at the testing time points, and the tissue adjacent the stent (for non-limiting example, tissue surrounding the stent—referred to generally as arterial tissue) was extracted for analysis of the amount of pharmaceutical agent therein. Stents were also analyzed for the amount of pharmaceutical agent remaining on the coated stent at each time point. Testing methods as noted elsewhere herein were used to determine the amount of pharmaceutical agent remaining on the stent or in the tissue, and/or are methods that would be known to one of skill in the art.
# [3] = Sirolimus remaining on and released from explanted stents (Example 34); format: in vivo, porcine; conditions: for Stent-associated sirolimus, Drug Released, Mean: calculated from Day 0 baseline measurement
# Experimental: as §1, §2, §3
# [4] = Day 60, porcine coronary artery
# [5] = Day 90, porcine coronary artery
compound,measurement,setting,value
CO[C@H]1C[C@@H]2CC[C@@H](C)[C@@](O)(O2)C(=O)C(=O)N2CCCC[C@H]2C(=O)O[C@H]([C@H](C)C[C@@H]2CC[C@@H](O)[C@H](OC)C2)CC(=O)[C@H](C)/C=C(\C)[C@@H](O)[C@@H](OC)C(=O)[C@H](C)C[C@H](C)/C=C/C=C/C=C/1C [rapamycin],Concentration of rapamycin in whole blood (below quantifiable limit),[1],< 0.100 ng/mL
same,Pharmaceutical agent released from the coated stent recovered in the analyzed arterial tissue,[2]; at day 30,about 60%
same,Pharmaceutical agent released from the coated stent recovered in the analyzed arterial tissue,[2]; between days 3 and 60,about 40%
same,concentration at 1 day,"[2]; pig, stented arterial tissue, other: coated stent implanted in coronary artery, 135 micrograms per stent, day 1, porcine, coated stent 135 micrograms sirolimus, read-out: Stented artery sirolimus concentration (tissue within stented segments)",19600 ng/g
same,concentration at 3 day,"[2]; pig, stented arterial tissue, other: coated stent implanted in coronary artery, 135 micrograms per stent, day 3, porcine, coated stent 135 micrograms sirolimus, read-out: Stented artery sirolimus concentration (tissue within stented segments)",21400 ng/g
same,concentration at 7 day,"[2]; pig, stented arterial tissue, other: coated stent implanted in coronary artery, 135 micrograms per stent, day 7, porcine, coated stent 135 micrograms sirolimus, read-out: Stented artery sirolimus concentration (tissue within stented segments)",42200 ng/g
same,concentration at 14 day,"[2]; pig, stented arterial tissue, other: coated stent implanted in coronary artery, 135 micrograms per stent, day 14, porcine, coated stent 135 micrograms sirolimus, read-out: Stented artery sirolimus concentration (tissue within stented segments)",55900 ng/g
same,concentration at 21 day,"[2]; pig, stented arterial tissue, other: coated stent implanted in coronary artery, 135 micrograms per stent, day 21, porcine, coated stent 135 micrograms sirolimus, read-out: Stented artery sirolimus concentration (tissue within stented segments)",173000 ng/g
same,concentration at 30 day,"[2]; pig, stented arterial tissue, other: coated stent implanted in coronary artery, 135 micrograms per stent, day 30, porcine, coated stent 135 micrograms sirolimus, read-out: Stented artery sirolimus concentration (tissue within stented segments)",565000 ng/g
same,concentration at 45 day,"[2]; pig, stented arterial tissue, other: coated stent implanted in coronary artery, 135 micrograms per stent, day 45, porcine, coated stent 135 micrograms sirolimus, read-out: Stented artery sirolimus concentration (tissue within stented segments)",582000 ng/g
same,concentration at 60 day,"[2]; pig, stented arterial tissue, other: coated stent implanted in coronary artery, 135 micrograms per stent, day 60, porcine, coated stent 135 micrograms sirolimus, read-out: Stented artery sirolimus concentration (tissue within stented segments)",532000 ng/g
same,concentration at 90 day,"[2]; pig, stented arterial tissue, other: coated stent implanted in coronary artery, 135 micrograms per stent, day 90, porcine, coated stent 135 micrograms sirolimus, read-out: Stented artery sirolimus concentration (tissue within stented segments)",251000 ng/g
same,"Stent-associated sirolimus, Drug Released, Mean",[3]; Day 0 baseline,0 µg
same,"Stent-associated sirolimus, Drug Remaining, Mean","[3]; Day 0 baseline, coated stent (PDPDP, 50:50 PLGA, 135 micrograms sirolimus)",137.00 µg
same,"Stent-associated sirolimus, Drug Remaining, Mean","[3]; Day 1, coated stent (PDPDP, 50:50 PLGA, 135 micrograms sirolimus) in porcine coronary artery",137.00 µg
same,"Stent-associated sirolimus, Drug Released, Mean","[3]; Day 1, porcine coronary artery",1.67 µg
same,"Stent-associated sirolimus, Drug Remaining, Mean","[3]; Day 3, coated stent (PDPDP, 50:50 PLGA, 135 micrograms sirolimus) in porcine coronary artery",135.83 µg
same,"Stent-associated sirolimus, Drug Released, Mean","[3]; Day 3, porcine coronary artery",2.83 µg
same,"Stent-associated sirolimus, Drug Remaining, Mean","[3]; Day 7, coated stent (PDPDP, 50:50 PLGA, 135 micrograms sirolimus) in porcine coronary artery",127.83 µg
same,"Stent-associated sirolimus, Drug Released, Mean","[3]; Day 7, porcine coronary artery",9.17 µg
same,"Stent-associated sirolimus, Drug Remaining, Mean","[3]; Day 14, coated stent (PDPDP, 50:50 PLGA, 135 micrograms sirolimus) in porcine coronary artery",119.67 µg
same,"Stent-associated sirolimus, Drug Released, Mean","[3]; Day 14, porcine coronary artery",17.33 µg
same,"Stent-associated sirolimus, Drug Remaining, Mean","[3]; Day 21, coated stent (PDPDP, 50:50 PLGA, 135 micrograms sirolimus) in porcine coronary artery",103.68 µg
same,"Stent-associated sirolimus, Drug Released, Mean","[3]; Day 21, porcine coronary artery",33.32 µg
same,"Stent-associated sirolimus, Drug Remaining, Mean","[3]; Day 30, coated stent (PDPDP, 50:50 PLGA, 135 micrograms sirolimus) in porcine coronary artery",65.25 µg
same,"Stent-associated sirolimus, Drug Released, Mean","[3]; Day 30, porcine coronary artery",71.75 µg
same,"Stent-associated sirolimus, Drug Remaining, Mean","[3]; Day 45, coated stent (PDPDP, 50:50 PLGA, 135 micrograms sirolimus) in porcine coronary artery",3.89 µg
same,"Stent-associated sirolimus, Drug Released, Mean","[3]; Day 45, porcine coronary artery",133.12 µg
same,"Stent-associated sirolimus, Drug Remaining, Mean","[3]; Day 60, coated stent (PDPDP, 50:50 PLGA, 135 micrograms sirolimus) in porcine coronary artery",1.59 µg
same,Average incremental stent sirolimus elution (loss) rate,[3]; [4],0.15 ± 0.04 µg/day
same,"Stent-associated sirolimus, Drug Released, Mean",[3]; [4],135.41 µg
same,"Stent-associated sirolimus, Drug Remaining, Mean","[3]; Day 90, coated stent (PDPDP, 50:50 PLGA, 135 micrograms sirolimus) in porcine coronary artery",0.11 µg
same,Average incremental stent sirolimus elution (loss) rate,[3]; [5],0.05 ± 0.00 µg/day
same,"Stent-associated sirolimus, Drug Released, Mean",[3]; [5],136.89 µg
same,Average incremental stent sirolimus elution (loss) rate,"[3]; peak around day 30, porcine coronary artery",4.27 ± 1.69 µg/day
